According to publication PMC11882969 (Nature Communications, 2025):

Target: CB1 (rCB1) (Rattus norvegicus, UniProt P20272)
Assay: Single-point radioligand displacement screen
Assay type: binding
Conditions: 10 µM, 1 µM or 300 nM by cell colour (not visible)

Sequence of CB1 (rCB1) (P20272 whole entry): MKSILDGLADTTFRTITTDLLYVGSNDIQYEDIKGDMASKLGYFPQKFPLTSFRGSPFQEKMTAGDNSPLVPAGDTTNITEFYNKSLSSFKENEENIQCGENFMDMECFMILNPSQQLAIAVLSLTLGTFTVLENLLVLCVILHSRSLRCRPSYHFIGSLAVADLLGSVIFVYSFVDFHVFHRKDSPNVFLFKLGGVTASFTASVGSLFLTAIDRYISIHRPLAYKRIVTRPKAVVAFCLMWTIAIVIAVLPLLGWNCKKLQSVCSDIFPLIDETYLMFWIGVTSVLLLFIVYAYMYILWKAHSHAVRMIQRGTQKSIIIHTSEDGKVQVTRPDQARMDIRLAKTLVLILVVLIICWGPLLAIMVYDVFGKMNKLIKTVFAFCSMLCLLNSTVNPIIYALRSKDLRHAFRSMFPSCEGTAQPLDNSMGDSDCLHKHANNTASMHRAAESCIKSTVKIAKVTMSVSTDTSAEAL

## COC(=O)C(NC(=O)c1cc(C)n(-c2cccc(F)c2)n1)c1ccc2c(c1)CCO2 (stereo not shown) [compound 12208]
  % 1H-CP-55,940 displacement (mean) from single point screen: -5.83%
